Target: T1, BK channels (Oryctolagus cuniculus, UniProt Q9BG98)
T1 construct: wherein the native BK channels were more sensitive to Ca^2+; from tissue
Test: Single channel recordings, inside-out patch clamp, voltage ramps, isolated smooth muscle cells of the rabbit bladder
Type: cell-based
Settings: for effect on BK channel activity, in words (SAR discussion based on V1/2 data): inside out patches on rabbit smooth muscle cells
Method: All experiments were approved by the Dundalk Institute of Technology Animal Care and Use Committee. […] The urinary bladder and most proximal 1.5 cm of the urethra was removed and placed in Krebs solution. Strips of bladder tissue, 0.5 cm in width were dissected, cut into 1 mm^3 pieces and stored in Ca^2+-free Hanks' solution for 30 min prior to cell dispersal. Tissue pieces were incubated in dispersal medium containing (per 5 ml) of Ca^2+-free Hanks' solution: 15 mg collagenase (Sigma type 1A), 1 mg protease (Sigma type XXIV), 10 mg bovine serum albumin (Sigma) and 10 mg trypsin inhibitor (Sigma) for 10-15 min at 37° C. Tissue was then transferred to Ca^2+-free Hanks' solution and stirred for a further 10-15 min to release single smooth muscle cells. These were plated in Petri dishes containing 100 μM Ca^2+ Hanks' solution and stored at 4° C. for use within 8 h. During experiments, the dish containing the cells was continuously perfused with Hanks' solution at 36±1° C. Additionally the cell under study was continuously superfused by means of a custom built close delivery system with a pipette of tip diameter 200 μm placed approximately 300 μm from the cell. The high K^+ solution in the close delivery system could be switched to a drug-containing solution with a dead space time of less than 5 s.
For whole cell recordings pipettes were pulled from borosilicate glass capillary tubing (1.5 mm outer diameter, 1.17 mm inner diameter; Clark Medical Instruments) to a tip of diameter approximately 1-1.5 μm and resistance of 2-4 Mohms. For single channel recordings, pipettes were pulled from borosilicate glass capillary tubing (1.5 mm outer diameter, 0.8 mm inner diameter; Clark Medical Instruments) and fire polished before use. Voltage clamp commands were delivered via an Axopatch 1D or Axon 200B patch clamp amplifiers (Axon Instruments) and membrane currents were recorded by a 12 bit AD/DA converter (Axodata 1200 or Labmaster, Scientific Solutions) interfaced to an Intel computer running pCLAMP software.
All values in (mM): KCl, 140. Glucose, 10, EGTA 1 and HEPES, 10. For free Ca^2+ greater than 300 nM: All values in (mM): KCl, 140. Glucose, 10, H-EDTA 1 and HEPES, 10. The same solution composition is used in the bath as in the patch pipette for these experiments except that the pipette solution contained 100 nM Ca^2+.
In single channel experiments voltage commands were applied using pClamp ramped potentials. This allowed more efficient measurement of slope conductance and channel activation than conventional step depolarisations. Activation curves were calculated by averaging current responses to 15 potential ramps and dividing each data point of the averaged current by the single channel amplitude at that holding potential, after leakage current correction. […] This analysis provides a continuous recording of the number of open channels multiplied by the open probability (NPo) over the entire voltage range. To obtain values for the steepness of the voltage-dependent activation and half-maximal activation voltage, activation curves were fitted with Boltzman functions of the form: NPo=n/{1+exp[−K(V−V1/2)]} where N is the number of channels in the patch, n is the maximal NPo level, K^−1 is the steepness of the voltage-dependent activation (change in potential necessary to cause an e-fold increase in activation) and V1/2 is the voltage at which there is half-maximal activation. Again, all of the experiments were carried out at 36±1° C.
The patches were held at a potential of −100 mV and voltage ramps were then applied from −100 mV up to +100 mV over 2 s.
Patches were held at −100 mV and ramped through to +100 mV and each sweep was repeated 15 times. The same protocol was repeated after the patch was incubated in 1 μM Ca^2+.

[1] = Table 2, 10 μM compound, inside-out patch
[2] = Table 1, 10 μM compound, inside-out patch, V1/2 control vs drug

T1 sequence (Q9BG98 whole entry): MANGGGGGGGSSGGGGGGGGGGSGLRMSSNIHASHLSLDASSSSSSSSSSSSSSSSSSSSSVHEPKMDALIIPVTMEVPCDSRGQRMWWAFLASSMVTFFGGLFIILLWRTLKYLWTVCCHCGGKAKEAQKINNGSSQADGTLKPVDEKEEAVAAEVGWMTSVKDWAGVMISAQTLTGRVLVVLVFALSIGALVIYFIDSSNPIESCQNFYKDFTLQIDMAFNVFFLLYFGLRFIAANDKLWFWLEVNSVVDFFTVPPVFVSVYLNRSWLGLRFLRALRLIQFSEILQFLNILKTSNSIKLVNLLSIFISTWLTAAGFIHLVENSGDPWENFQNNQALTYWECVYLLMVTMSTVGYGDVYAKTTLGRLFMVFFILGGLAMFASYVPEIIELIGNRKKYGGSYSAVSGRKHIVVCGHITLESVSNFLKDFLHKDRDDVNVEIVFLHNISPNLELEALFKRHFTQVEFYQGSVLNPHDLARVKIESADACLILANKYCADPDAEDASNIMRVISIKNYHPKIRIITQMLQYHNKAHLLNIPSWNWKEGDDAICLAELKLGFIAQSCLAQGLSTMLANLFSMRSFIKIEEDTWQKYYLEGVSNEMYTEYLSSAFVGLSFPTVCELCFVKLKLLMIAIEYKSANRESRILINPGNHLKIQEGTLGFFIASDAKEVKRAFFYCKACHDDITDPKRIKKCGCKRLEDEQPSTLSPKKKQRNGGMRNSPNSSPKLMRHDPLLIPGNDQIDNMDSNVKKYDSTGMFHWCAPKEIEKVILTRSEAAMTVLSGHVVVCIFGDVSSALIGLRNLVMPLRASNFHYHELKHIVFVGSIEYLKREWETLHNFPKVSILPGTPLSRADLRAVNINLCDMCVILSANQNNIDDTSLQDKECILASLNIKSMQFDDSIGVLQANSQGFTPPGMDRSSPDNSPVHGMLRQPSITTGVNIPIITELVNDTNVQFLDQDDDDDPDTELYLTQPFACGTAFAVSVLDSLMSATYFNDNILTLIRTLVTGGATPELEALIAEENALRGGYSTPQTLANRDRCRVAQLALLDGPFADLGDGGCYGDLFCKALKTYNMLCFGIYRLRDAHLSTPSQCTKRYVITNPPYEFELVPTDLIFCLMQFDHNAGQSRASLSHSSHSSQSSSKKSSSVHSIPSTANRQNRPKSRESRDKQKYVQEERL

SMILES | ΔV1/2 (mV) in 100 nm Ca^2+ [1] | effect on BK channel activity, in words (SAR discussion based on V1/2 data) | ΔV1/2 (mV) in 100 nm Ca^2+ [2] | other results
Nc1c(S(=O)(=O)[O-])cc(Nc2ccc3ccccc3c2)c2c1C(=O)c1ccccc1C2=O.[Na+] [SR-5-72, sodium 1-amino-4-((naphthalen-2-yl)amino)-9,10-dioxo-9,10-dihydroanthracene-2-sulfonate] | −103.8 mV | dramatic increase in the activity |  | shifted the V1/2 by (1 μM): 93 mV
Nc1c(S(=O)(=O)[O-])cc(Nc2ccc(Cl)c(C(F)(F)F)c2)c2c1C(=O)c1ccccc1C2=O.[Na+] [SR-5-40, sodium 1-amino-4-(4-chloro-3-(trifluoromethyl)phenylamino)-9,10-dioxo-9,10-dihydroanthracene-2-sulfonate] |  |  | −97.8 mV | 
Nc1c(S(=O)(=O)[O-])cc(Nc2ccc(Cc3ccccc3)cc2)c2c1C(=O)c1ccccc1C2=O.[Na+] [SR-5-37, sodium 1-amino-4-(4-benzylphenylamino)-9,10-dioxo-9,10-dihydroanthracene-2-sulfonate] |  | BK channel openers | −77.8 mV | 
Nc1c(S(=O)(=O)[O-])cc(Nc2cccc(O)c2)c2c1C(=O)c1ccccc1C2=O.[Na+] [SR-5-53, sodium 1-amino-4-((3-hydroxyphenyl)amino)-9,10-dioxo-9,10-dihydroanthracene-2-sulfonate] | −44.1 mV |  |  | 
Cc1ccc(Nc2cc(S(=O)(=O)[O-])c(N)c3c2C(=O)c2ccccc2C3=O)cc1C(F)(F)F.[Na+] [SR-5-44, sodium 1-amino-4-(4-methyl-3-(trifluoromethyl)phenylamino)-9,10-dioxo-9,10-dihydroanthracene-2-sulfonate] |  |  | −145.4 mV | 
Nc1c(S(=O)(=O)[O-])cc(NC2CCCCC2)c2c1C(=O)c1ccccc1C2=O.[Na+] [Acid Blue 62, sodium 1-amino-4-(cyclohexylamino)-9,10-dioxo-9,10-dihydroanthracene-2-sulfonate] |  |  | −54.37 mV | 
Nc1c(S(=O)(=O)[O-])cc(Nc2cccc(-c3ccccc3)c2)c2c1C(=O)c1ccccc1C2=O.[Na+] [SR-5-94, sodium 4-([1,1′-biphenyl]-3-ylamino)-1-amino-9,10-dioxo-9,10-dihydroanthracene-2-sulfonate] | −60.0 mV |  |  | 
Nc1c(S(=O)(=O)[O-])cc(NC2CCCCCC2)c2c1C(=O)c1ccccc1C2=O.[Na+] [SR-5-32, sodium 1-amino-4-(cycloheptylamino)-9,10-dioxo-9,10-dihydroanthracene-2-sulfonate] |  |  | −61.1 mV | 
CCc1cccc(Nc2cc(S(=O)(=O)[O-])c(N)c3c2C(=O)c2ccccc2C3=O)c1.[Na+] [SR-5-31, sodium 1-amino-4-(3-ethylphenylamino)-9,10-dioxo-9,10-dihydroanthracene-2-sulfonate] |  |  | −87.1 mV | 
Nc1c(S(=O)(=O)[O-])cc(Nc2ccc(F)c(C(F)(F)F)c2)c2c1C(=O)c1ccccc1C2=O.[Na+] [SR-5-28, sodium 1-amino-4-(4-fluoro-3-(trifluoromethyl)phenylamino)-9,10-dioxo-9,10-dihydroanthracene-2-sulfonate] |  |  | −83.2 mV | 
Nc1c(S(=O)(=O)[O-])cc(Nc2cccc(S(=O)(=O)O)c2)c2c1C(=O)c1ccccc1C2=O.[Na+] [SR-5-18, sodium 1-amino-9,10-dioxo-4-(3-sulfophenylamino)-9,10-dihydroanthracene-2-sulfonate] |  | decreases the activity dramatically | −23.2 mV | 
CC(C)(C)c1cccc(Nc2cc(S(=O)(=O)[O-])c(N)c3c2C(=O)c2ccccc2C3=O)c1.[Na+] [SR-5-76, sodium 1-amino-4-((3-(tert-butyl)phenyl)amino)-9,10-dioxo-9,10-dihydroanthracene-2-sulfonate] | −94.9 mV | BK channel agonists |  | 
CC(C)c1ccc(Nc2cc(S(=O)(=O)[O-])c(N)c3c2C(=O)c2ccccc2C3=O)cc1.[Na+] [SR-5-99, sodium 1-amino-4-((4-isopropylphenyl)amino)-9,10-dioxo-9,10-dihydroanthracene-2-sulfonate] | −83.4 mV | BK channel openers |  | 
CCc1ccc(Nc2cc(S(=O)(=O)[O-])c(N)c3c2C(=O)c2ccccc2C3=O)cc1.[Na+] [SR-5-97, sodium 1-amino-4-((4-ethylphenyl)amino)-9,10-dioxo-9,10-dihydroanthracene-2-sulfonate] | −78.5 mV | BK channel openers |  | 
CC(C)c1ccccc1Nc1cc(S(=O)(=O)[O-])c(N)c2c1C(=O)c1ccccc1C2=O.[Na+] [SR-5-98, sodium 1-amino-4((2-isopropylphenyl)amino)-9,10-dioxo-9,10-dihydroanthracene-2-sulfonate] | −120.0 mV | BK channel agonists |  | 
Nc1c(S(=O)(=O)[O-])cc(Nc2cccc3c2CCCC3)c2c1C(=O)c1ccccc1C2=O.[Na+] [SR-5-65, sodium 1-amino-9,10-dioxo-4-((5,6,7,8-tetrahydronaphthalen-1-yl)amino)-9,10-dihydroanthracene-2-sulfonate] | −116.2 mV | potent BK channel activator |  | 
Nc1c(S(=O)(=O)[O-])cc(Nc2ccc3c(c2)CCCC3)c2c1C(=O)c1ccccc1C2=O.[Na+] [SR-5-69, sodium 1-amino-9,10-dioxo-4-((5,6,7,8-tetrahydronaphthalen-2-yl)amino)-9,10-dihydroanthracene-2-sulfonate] |  | dramatic increase in the activity |  | shift in the activation V1/2 (30 nM, example patch of FIG. 8A): very small shift; shifted the V1/2 by (1 μM): 110 mV; V1/2 reached in the presence of the drug (1 μM, example patch of FIG. 8A): approximately +5 mV; shift of the V1/2 (1 μM, example patch of FIG. 8A, hyperpolarising direction): > −100 mV; ΔV1/2 (mV) in 100 nm Ca^2+ (Table 2, 1 μM compound, inside-out patch): −101.6 mV; dose dependence of effects on open probability and ΔV1/2 for BK channels (increasing concentrations, inside-out patch): dose-dependent; EC50 (n=4-6 patches containing BK channels, read-out: mean EC50 (Langmuir fit of mean V1/2 against concentration)): 95 nM
Nc1c(S(=O)(=O)[O-])cc(NC2CCCC2)c2c1C(=O)c1ccccc1C2=O.[Na+] [SR-5-8, sodium 1-amino-4-(cyclopentylamino)-9,10-dioxo-9,10-dihydroanthracene-2-sulfonate] |  |  | −24.24 mV | 
C=C(C)[C@H]1O[C@H]2CC[C@@]3(C)[C@@](O)(CC[C@H]4[C@@H]5OC(C)(C)[C@H]6C[C@@H]7C(=C)Cc8c(Cl)cc9[nH]c(c5c9c8[C@@]76O)[C@@]43C)[C@@]23O[C@H]3[C@H]1O [Penitrem A, reference compound] |  |  |  | effect on single channel openings (100 nM, 1 μM Ca2+, voltage ramp): abolished the single channel openings
Cc1cccc(Nc2cc(S(=O)(=O)[O-])c(N)c3c2C(=O)c2ccccc2C3=O)c1.[Na+] [SR-5-26, sodium 4-(m-toluidino)-1-amino-9,10-dioxo-9,10-dihydroanthracene-2-sulfonate] |  |  | −53.5 mV | 
Nc1c(S(=O)(=O)[O-])cc(Nc2cc(F)cc(F)c2)c2c1C(=O)c1ccccc1C2=O.[Na+] [SR-5-14, sodium 1-amino-4-(3,5-difluorophenylamino)-9,10-dioxo-9,10-dihydroanthracene-2-sulfonate] |  |  | −24.2 mV | 

— patent US9877940B2, “Anthraquinone compounds and their uses” (DUNDALK INSTITUTE OF TECHNOLOGY, priority 2010, dated 2018)
